Ends that are not written are not given here. Peptide text beside a SMILES is read from it. * marks the point of attachment. Biotin = O=C1N[C@H]2[C@H](CS[C@H]2CCCCC(=O)*)N1
target: T1, PDZ protein (GST-PDZ fusion) (Homo sapiens, UniProt P29074); assay: G' assay (10 uM PL peptide), results of TABLE 7 and TABLE 12; type: binding; conditions: PDZ PTN-4, PDZ Domain 1
T1 construct: made in house; host or cells: E. coli (DH5alpha, BL21 or JM109)
T1 sequence (P29074 1-926): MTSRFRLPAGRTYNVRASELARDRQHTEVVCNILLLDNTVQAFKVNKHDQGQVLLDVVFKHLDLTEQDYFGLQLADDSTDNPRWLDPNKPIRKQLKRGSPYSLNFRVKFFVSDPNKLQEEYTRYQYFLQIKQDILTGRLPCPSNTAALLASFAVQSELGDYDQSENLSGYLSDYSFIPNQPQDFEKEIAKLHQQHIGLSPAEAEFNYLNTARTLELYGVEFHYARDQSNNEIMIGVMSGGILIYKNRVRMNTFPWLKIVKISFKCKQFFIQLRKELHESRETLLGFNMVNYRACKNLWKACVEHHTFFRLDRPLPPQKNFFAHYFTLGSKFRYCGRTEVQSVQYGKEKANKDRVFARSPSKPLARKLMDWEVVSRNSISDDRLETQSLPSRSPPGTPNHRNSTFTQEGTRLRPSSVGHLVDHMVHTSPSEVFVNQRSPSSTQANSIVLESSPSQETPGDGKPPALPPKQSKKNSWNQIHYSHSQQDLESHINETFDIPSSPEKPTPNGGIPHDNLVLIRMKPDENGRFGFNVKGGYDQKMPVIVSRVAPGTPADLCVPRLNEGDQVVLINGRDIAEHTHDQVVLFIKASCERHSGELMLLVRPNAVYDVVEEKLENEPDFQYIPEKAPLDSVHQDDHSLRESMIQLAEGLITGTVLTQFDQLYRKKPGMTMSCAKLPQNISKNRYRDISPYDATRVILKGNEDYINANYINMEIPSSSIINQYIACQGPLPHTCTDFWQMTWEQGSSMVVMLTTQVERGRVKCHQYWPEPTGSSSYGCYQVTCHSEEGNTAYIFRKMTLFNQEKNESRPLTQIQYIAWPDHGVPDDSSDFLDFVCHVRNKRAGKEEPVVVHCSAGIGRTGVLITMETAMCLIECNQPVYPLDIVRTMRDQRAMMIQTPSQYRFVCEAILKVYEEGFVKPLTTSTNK
Summary of the method: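 Biotinylated PL peptides at 10 uM (vs 20 uM in G^0 assay) bound to GST-PDZ fusions; PDZ protein at 5 ug/ml unless another concentration listed. Bound peptide read as A450 nm, classified 0–5 (0 = A450 0; 5 = A450 >4 repeated).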

Compound | Classification
CC(C)C[C@H](NC(=O)[C@H](C)NC(=O)[C@@H](NC(=O)[C@H](CCC(=O)O)NC(=O)[C@H](CCCNC(=N)N)NC(=O)[C@H](CCCNC(=N)N)NC(=O)CNC(=O)[C@H](CCC(N)=O)NC(=O)[C@H](CC(C)C)NC(=O)[C@H](CCCNC(=N)N)NC(=O)CNC(=O)CNC(=O)[C@H](CCCNC(=N)N)NC(=O)[C@H](C)NC(=O)[C@H](CO)NC(=O)[C@H](CCCNC(=N)N)NC(=O)CNC(=O)CNC(=O)[C@H](C)NC(=O)[C@H](C)NC(=O)CCCC[C@@H]1SC[C@@H]2NC(=O)N[C@@H]21)[C@@H](C)O)C(=O)O [HPV E6 33 (modified)] (Biotin-AAGGRSARGGRLQGRRETAL-OH; C-terminus assumed) | 1 (A450 nm 0-1)
TQGFPGPATWRRISSLESEV | 2 (A450 nm 1-2)
CSCC[C@H](NC(=O)[C@H](C)NC(=O)[C@H](CCCNC(=N)N)NC(=O)CNC(=O)[C@@H](NC(=O)[C@H](Cc1c[nH]c2ccccc12)NC(=O)[C@H](CCCNC(=N)N)NC(=O)CNC(=O)CCCC[C@@H]1SC[C@@H]2NC(=O)N[C@@H]21)[C@@H](C)O)C(=O)N[C@@H](CO)C(=O)N[C@@H](C)C(=O)N[C@@H](Cc1c[nH]c2ccccc12)C(=O)N[C@@H](CCCCN)C(=O)N1CCC[C@H]1C(=O)N[C@H](C(=O)N[C@@H](CCCNC(=N)N)C(=O)N[C@@H](CCCNC(=N)N)C(=O)N[C@@H](CCC(=O)O)C(=O)N[C@H](C(=O)N[C@@H](CCC(=O)O)C(=O)N[C@H](C(=O)O)C(C)C)[C@@H](C)O)[C@@H](C)O [HPV E6 #35 (modified)] (Biotin-GRWTGRAMSAWKPTRRETEV-OH; C-terminus assumed) | 4 (A450 nm 3-4)
QATSRNGHSARQHVVADTEL (Biotin-QATSRNGHSARQHVVADTEL) [CD34] | 1 (A450 nm 0-1)
CC[C@H](C)[C@H](NC(=O)[C@H](CCC(N)=O)NC(=O)CCCC[C@@H]1SC[C@@H]2NC(=O)N[C@@H]21)C(=O)N[C@@H](CO)C(=O)N1CCC[C@H]1C(=O)NCC(=O)NCC(=O)N[C@@H](CC(C)C)C(=O)N[C@@H](CCC(=O)O)C(=O)N1CCC[C@H]1C(=O)N1CCC[C@H]1C(=O)N[C@@H](CO)C(=O)N[C@@H](CCC(=O)O)C(=O)N[C@@H](CCCCN)C(=O)N[C@@H](Cc1c[nH]cn1)C(=O)N[C@@H](Cc1ccccc1)C(=O)N[C@@H](CCCNC(=N)N)C(=O)N[C@@H](CCC(=O)O)C(=O)N[C@H](C(=O)N[C@@H](CCC(=O)O)C(=O)N[C@H](C(=O)O)C(C)C)[C@@H](C)O [Tax] | 2 (A450 nm 1-2)

From patent US20050282743A1, “Molecular interactions in cells” (Arbor Vita Corporation, priority 2001, published 2005)
